Measured values published in BindingDB's records for doi:10.1021/jm8013458 (University of Copenhagen, 2009).

Experiments:
[1] = target: Excitatory amino acid transporter 1 (Homo sapiens, UniProt P43003); assay: Displacement of [3H]D-Asp from human EAAT1 receptor expressed in HEK293 cells
[2] = target: T1, Excitatory amino acid transporter 3 (Homo sapiens, UniProt P43005); assay: Displacement of [3H]D-Asp from human EAAT3 receptor expressed in HEK293 cells
T1 sequence (P43005 whole entry): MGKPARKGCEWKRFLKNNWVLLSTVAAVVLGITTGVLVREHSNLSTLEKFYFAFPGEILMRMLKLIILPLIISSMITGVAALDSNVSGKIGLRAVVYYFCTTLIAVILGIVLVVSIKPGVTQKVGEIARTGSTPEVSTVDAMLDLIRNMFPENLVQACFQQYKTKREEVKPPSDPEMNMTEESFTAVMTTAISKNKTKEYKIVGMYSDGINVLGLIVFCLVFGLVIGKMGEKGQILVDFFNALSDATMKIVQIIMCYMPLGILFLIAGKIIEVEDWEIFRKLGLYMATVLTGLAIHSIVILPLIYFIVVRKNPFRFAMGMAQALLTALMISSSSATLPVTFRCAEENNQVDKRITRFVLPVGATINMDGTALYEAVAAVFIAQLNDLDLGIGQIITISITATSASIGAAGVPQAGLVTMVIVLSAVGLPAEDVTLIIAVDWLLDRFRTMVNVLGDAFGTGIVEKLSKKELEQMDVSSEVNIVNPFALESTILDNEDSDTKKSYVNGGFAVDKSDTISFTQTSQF

[3] = target: Excitatory amino acid transporter 2 (Homo sapiens, UniProt P43004); assay: Displacement of [3H]D-Asp from human EAAT2 receptor expressed in HEK293 cells
Sequence of Excitatory amino acid transporter 2 (P43004 whole entry): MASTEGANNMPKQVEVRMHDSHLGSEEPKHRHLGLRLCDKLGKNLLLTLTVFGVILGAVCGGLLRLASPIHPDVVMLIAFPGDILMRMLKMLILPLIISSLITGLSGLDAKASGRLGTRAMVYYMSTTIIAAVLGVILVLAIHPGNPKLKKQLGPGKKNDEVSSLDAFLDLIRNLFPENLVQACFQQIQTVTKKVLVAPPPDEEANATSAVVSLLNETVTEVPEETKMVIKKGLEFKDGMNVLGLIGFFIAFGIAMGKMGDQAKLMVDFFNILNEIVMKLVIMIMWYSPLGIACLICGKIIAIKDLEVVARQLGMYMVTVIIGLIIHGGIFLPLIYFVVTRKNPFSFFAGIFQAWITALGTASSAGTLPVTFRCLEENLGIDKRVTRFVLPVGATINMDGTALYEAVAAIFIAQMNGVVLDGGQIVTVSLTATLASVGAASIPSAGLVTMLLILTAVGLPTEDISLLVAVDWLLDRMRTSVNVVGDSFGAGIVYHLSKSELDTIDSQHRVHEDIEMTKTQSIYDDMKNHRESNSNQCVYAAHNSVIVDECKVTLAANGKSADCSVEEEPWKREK

Sequence of Excitatory amino acid transporter 1 (P43003 whole entry): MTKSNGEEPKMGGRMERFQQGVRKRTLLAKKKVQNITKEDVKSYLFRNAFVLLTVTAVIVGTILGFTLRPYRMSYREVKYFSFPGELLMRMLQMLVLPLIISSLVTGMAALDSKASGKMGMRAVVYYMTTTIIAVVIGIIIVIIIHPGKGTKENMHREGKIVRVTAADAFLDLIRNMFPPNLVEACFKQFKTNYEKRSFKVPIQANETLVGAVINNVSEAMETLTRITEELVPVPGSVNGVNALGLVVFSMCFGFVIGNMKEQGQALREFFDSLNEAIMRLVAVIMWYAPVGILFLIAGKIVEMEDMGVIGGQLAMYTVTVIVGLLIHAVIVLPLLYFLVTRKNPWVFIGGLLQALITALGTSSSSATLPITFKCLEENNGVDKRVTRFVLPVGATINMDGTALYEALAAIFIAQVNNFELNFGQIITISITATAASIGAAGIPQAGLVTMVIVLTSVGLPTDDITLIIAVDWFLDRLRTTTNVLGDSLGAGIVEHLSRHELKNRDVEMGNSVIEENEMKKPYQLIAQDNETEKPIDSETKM

| SMILES | IC50 [1] [µM] | IC50 [2] [µM] | IC50 [3] [µM] |
| --- | --- | --- | --- |
| CC1CC(=O)C2=C(C1)OC(=N)C(C#N)C2c1ccc2c(c1)OCO2 (centres undefined) [2-amino-4-(benzo[d][1,3]dioxol-5-yl)-7-methyl-5-oxo-5,6,7,8-tetrahydro-4H-chromene-3-carbonitrile] | > 300 | > 300 | > 300 |
| N#CC1C(=N)OC2=C(C(=O)CC(c3ccccc3)C2)C1c1cccnc1 (centres undefined) [2-amino-5-oxo-7-phenyl-4-(pyridin-3-yl)-5,6,7,8-tetrahydro-4H-chromene-3-carbonitrile] | 30 | > 300 | > 300 |
| COc1cccc(C2C3=C(CC(c4ccccc4)CC3=O)OC(=N)C2C#N)c1OC (centres undefined) [2-amino-4-(2,3-dimethoxyphenyl)-5-oxo-7-phenyl-5,6,7,8-tetrahydro-4H-chromene-3-carbonitrile] | 50.1 | – | – |
| COc1ccc(C2C3=C(CC(c4ccccc4Cl)CC3=O)OC(=N)C2C#N)cc1 (centres undefined) [2-amino-7-(2-chlorophenyl)-4-(4-methoxyphenyl)-5-oxo-5,6,7,8-tetrahydro-4H-chromene-3-carbonitrile] | – | > 300 | > 300 |
| CC1C2=C(CC(c3ccccc3)CC2=O)OC(=N)C1C#N (centres undefined) [2-amino-4-methyl-5-oxo-7-phenyl-5,6,7,8-tetrahydro-4H-chromene-3-carbonitrile] | – | > 300 | > 316 |
| N#CC1C(=N)OC2=C(C(=O)CC(c3ccccc3)C2)C1c1ccc2c(c1)OCO2 (centres undefined) | – | > 300 | > 300 |
| N#CC1CC2=C(CC(c3ccccc3)CC2=O)OC1=N (centres undefined) [2-Amino-5-oxo-7-phenyl-5,6,7,8-tetrahydro-4H-chromene-3-carbonitrile] | > 300 | > 300 | > 300 |
| COc1ccc(C2C3=C(CC(c4ccc(OC)c(OC)c4)CC3=O)OC(=N)C2C#N)cc1 (centres undefined) [2-Amino-4-(4-methoxyphenyl)-7-(3,4-dimethoxyphenyl)-5-oxo-5,6,7,8-tetrahydro-4H-chromene-3-carbonitrile] | – | > 300 | > 300 |
| N#CC1C(=N)OC2=C(C(=O)CC(c3cccs3)C2)C1c1ccc([N+](=O)[O-])cc1 (centres undefined) [2-amino-4-(4-nitrophenyl)-5-oxo-7-(thiophen-2-yl)-5,6,7,8-tetrahydro-4H-chromene-3-carbonitrile] | – | > 300 | > 300 |
| COc1ccc(C2C3=C(CC(c4ccco4)CC3=O)OC(=N)C2C#N)cc1OC(=O)N1CCOCC1 (centres undefined) [5-(2-amino-3-cyano-7-(furan-2-yl)-5-oxo-5,6,7,8-tetrahydro-4H-chromen-4-yl)-2-methoxyphenyl morpholine-4-carboxylate] | 100 | > 300 | > 300 |
| COc1ccc(C2C3=C(CC(c4cccc5ccccc45)CC3=O)OC(=N)C2C#N)cc1 (centres undefined) [2-Amino-4-(4-methoxyphenyl)-7-(naphthalene-1-yl)-5-oxo-5,6,7,8-tetrahydro-4H-chromene-3-carbonitrile] | 0.66 | > 300 | > 300 |
| N#CC1C(=N)OC2=C(C(=O)CC(c3ccco3)C2)C1c1ccccc1 (centres undefined) [2-amino-7-(furan-2-yl)-5-oxo-4-phenyl-5,6,7,8-tetrahydro-4H-chromene-3-carbonitrile] | – | > 300 | > 300 |

More lines, now with the values ahead:

| IC50 [1] [µM] | IC50 [2] [µM] | IC50 [3] [µM] | SMILES |
| --- | --- | --- | --- |
| > 300 | > 300 | > 300 | N#CC1C(=N)OC2=C(C(=O)CCC2)C1c1ccccc1F (centres undefined) [2-amino-4-(2-fluorophenyl)-5-oxo-5,6,7,8-tetrahydro-4H-chromene-3-carbonitrile] |
| – | > 100 | > 100 | N#CC1C(=N)OC2=C(C(=O)CC(c3ccccc3)C2)C1c1ccc(-c2ccccc2)cc1 (centres undefined) [2-amino-4-(biphenyl-4-yl)-5-oxo-7-phenyl-5,6,7,8-tetrahydro-4H-chromene-3-carbonitrile] |
| 3.6 | > 100 | > 100 | N#CC1C(=N)OC2=C(C(=O)CC(c3ccccc3)C2)C1c1ccc([N+](=O)[O-])cc1 (centres undefined) [2-amino-4-(4-nitrophenyl)-5-oxo-7-phenyl-5,6,7,8-tetrahydro-4H-chromene-3-carbonitrile] |
| – | > 100 | > 100 | CSc1ccc(C2C3=C(CC(c4ccccc4)CC3=O)OC(=N)C2C#N)cc1 (centres undefined) [2-amino-4-(4-(methylthio)phenyl)-5-oxo-7-phenyl-5,6,7,8-tetrahydro-4H-chromene-3-carbonitrile] |
| 30 | > 100 | > 100 | N#CC1C(=N)OC2=C(C(=O)CC(c3ccccc3)C2)C1Cc1ccccc1 (centres undefined) [2-amino-4-benzyl-5-oxo-7-phenyl-5,6,7,8-tetrahydro-4H-chromene-3-carbonitrile] |
| 3.6 | > 100 | > 100 | N#CC1C(=N)OC2=C(C(=O)CC(c3ccccc3)C2)C1c1ccc2ccccc2c1 (centres undefined) [2-amino-4-(naphthalen-2-yl)-5-oxo-7-phenyl-5,6,7,8-tetrahydro-4H-chromene-3-carbonitrile] |
